Where two headings read alike, the source gives them in different places.
Biological target: PRC2 complex (EZH2 Y641F/EED/SUZ12/RbAp48/AEBP2) (Homo sapiens (Human), UniProt Q15910, Y641F)
Assay: Activity of a compound to PRC2 complex (EZH2 Y641F), HTRF
[1] = read-out: IC50 (EZH2_Y641F), EZH2 Y641F PRC2 complex, HTRF, class symbols

PRC2 complex (EZH2 Y641F/EED/SUZ12/RbAp48/AEBP2), sequence (Q15910 whole entry Y641F): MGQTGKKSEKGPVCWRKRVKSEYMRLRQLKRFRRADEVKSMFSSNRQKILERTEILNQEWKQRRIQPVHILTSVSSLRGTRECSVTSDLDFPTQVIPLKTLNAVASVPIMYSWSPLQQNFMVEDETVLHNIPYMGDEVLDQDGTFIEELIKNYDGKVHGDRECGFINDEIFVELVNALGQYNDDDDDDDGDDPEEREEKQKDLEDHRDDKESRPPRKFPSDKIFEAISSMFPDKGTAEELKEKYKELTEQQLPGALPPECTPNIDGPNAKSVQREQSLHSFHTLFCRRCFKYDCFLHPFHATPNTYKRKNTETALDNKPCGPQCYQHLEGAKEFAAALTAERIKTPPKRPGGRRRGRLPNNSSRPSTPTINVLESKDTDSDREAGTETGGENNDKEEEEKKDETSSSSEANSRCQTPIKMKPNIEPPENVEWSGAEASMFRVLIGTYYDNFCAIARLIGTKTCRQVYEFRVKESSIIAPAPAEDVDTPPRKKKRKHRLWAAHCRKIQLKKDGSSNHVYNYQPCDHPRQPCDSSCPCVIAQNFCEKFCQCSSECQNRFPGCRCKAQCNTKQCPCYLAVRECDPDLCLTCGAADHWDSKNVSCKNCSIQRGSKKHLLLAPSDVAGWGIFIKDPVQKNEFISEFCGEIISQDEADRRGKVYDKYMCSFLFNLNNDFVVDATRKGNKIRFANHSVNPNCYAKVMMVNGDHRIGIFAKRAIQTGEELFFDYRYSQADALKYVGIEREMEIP
PRC2 complex (EZH2 Y641F/EED/SUZ12/RbAp48/AEBP2), sequence (O75530 whole entry partner): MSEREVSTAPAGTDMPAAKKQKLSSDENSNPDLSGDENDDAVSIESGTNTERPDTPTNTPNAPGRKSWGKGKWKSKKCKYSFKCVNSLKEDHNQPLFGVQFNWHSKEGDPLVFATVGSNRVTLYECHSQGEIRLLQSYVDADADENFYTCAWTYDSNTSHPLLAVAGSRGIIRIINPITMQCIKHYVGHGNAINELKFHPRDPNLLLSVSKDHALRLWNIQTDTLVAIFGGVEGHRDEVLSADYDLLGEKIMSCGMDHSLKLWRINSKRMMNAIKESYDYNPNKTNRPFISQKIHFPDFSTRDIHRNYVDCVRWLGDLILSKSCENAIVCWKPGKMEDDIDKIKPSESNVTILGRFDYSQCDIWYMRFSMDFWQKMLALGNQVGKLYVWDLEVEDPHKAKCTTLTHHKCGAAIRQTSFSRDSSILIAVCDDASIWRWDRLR
PRC2 complex (EZH2 Y641F/EED/SUZ12/RbAp48/AEBP2), sequence (Q15022 whole entry partner): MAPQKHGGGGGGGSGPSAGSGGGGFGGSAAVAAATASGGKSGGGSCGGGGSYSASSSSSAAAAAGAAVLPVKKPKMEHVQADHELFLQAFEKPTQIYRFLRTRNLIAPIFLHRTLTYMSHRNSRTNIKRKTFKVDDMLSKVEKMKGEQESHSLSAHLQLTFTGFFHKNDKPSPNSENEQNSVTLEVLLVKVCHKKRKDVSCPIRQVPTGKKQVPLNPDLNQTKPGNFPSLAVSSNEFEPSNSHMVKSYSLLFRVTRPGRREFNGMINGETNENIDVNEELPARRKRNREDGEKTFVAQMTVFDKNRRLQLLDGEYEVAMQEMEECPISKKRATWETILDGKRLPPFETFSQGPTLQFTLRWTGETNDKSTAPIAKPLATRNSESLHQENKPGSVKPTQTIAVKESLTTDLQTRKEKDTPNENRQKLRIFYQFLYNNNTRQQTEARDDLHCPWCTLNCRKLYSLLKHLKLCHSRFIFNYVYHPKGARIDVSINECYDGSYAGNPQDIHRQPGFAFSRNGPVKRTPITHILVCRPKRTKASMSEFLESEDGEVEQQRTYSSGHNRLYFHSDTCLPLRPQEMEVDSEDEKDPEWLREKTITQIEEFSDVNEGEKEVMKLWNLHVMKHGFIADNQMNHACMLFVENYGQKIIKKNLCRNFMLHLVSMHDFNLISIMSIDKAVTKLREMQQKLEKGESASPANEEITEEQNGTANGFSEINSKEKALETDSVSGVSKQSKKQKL
PRC2 complex (EZH2 Y641F/EED/SUZ12/RbAp48/AEBP2), sequence (Q09028 whole entry partner): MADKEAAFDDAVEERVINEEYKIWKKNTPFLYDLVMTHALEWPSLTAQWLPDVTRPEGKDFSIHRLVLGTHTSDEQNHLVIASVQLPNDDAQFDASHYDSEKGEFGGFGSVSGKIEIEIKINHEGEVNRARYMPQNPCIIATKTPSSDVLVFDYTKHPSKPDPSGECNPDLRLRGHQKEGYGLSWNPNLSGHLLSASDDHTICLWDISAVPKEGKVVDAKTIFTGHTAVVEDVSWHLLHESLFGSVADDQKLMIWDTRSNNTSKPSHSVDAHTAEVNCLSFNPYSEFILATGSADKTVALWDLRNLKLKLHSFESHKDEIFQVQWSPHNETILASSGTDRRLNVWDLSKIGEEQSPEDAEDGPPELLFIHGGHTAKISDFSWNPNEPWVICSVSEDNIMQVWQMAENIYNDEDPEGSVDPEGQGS
PRC2 complex (EZH2 Y641F/EED/SUZ12/RbAp48/AEBP2), sequence (Q6ZN18 whole entry partner): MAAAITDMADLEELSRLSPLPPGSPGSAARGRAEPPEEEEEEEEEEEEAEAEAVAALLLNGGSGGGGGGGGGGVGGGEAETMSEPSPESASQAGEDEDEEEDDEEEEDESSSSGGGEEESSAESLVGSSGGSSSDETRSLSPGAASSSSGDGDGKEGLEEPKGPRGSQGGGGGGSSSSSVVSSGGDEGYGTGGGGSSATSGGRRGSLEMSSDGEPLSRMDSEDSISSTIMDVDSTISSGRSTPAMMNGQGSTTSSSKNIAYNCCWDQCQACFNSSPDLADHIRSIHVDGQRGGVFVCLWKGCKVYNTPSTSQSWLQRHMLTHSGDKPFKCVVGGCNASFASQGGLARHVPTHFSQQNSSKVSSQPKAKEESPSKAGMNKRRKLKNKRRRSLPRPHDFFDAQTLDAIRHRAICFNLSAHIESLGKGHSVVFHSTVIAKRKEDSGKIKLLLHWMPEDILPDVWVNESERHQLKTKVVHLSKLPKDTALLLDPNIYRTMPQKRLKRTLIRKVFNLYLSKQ
Procedure: Determination of the Activity of a Compound to PRC2 Complex (EZH2Y641F):
Detection Method: Homogeneous Time-Resolved Fluorescence (HTRF)
Reaction was conducted in darkness at room temperature for 4 h. […] The IC50 values of the compounds were calculated using SoftMax Pro 5.4.1 software.

| Compound | IC50 [1] [µM] | IC50 [µM] |
| --- | --- | --- |
| Cc1cc(C)c(CNC(=O)c2cc3c(Br)ccn3c(C(C)N3CCOCC3)c2C)c(=O)[nH]1 (stereo not shown) [Example 53, N-((4,6-dimethyl-2-oxo-1,2-dihydropyridin-3-yl)methyl)-6-methyl-5-(1-morphinolinylethyl)-2-(4,5,6,7-tetrahydrothiazolo[5,4-c]pyridin-2-yl)indolizine-7-carboxamide] | < 0.1 |  |
| Cc1cc(C)c(CNC(=O)c2cc3cc(Br)cn3c(C(C)N3CCN(S(C)(=O)=O)CC3)c2C)c(=O)[nH]1 (stereo not shown) [Example 103, 2-bromo-N-((4,6-dimethyl-2-oxo-1,2-dihydropyridin-3-yl)methyl)-6-methyl-5-(1-(4-(methylsulfonyl)piperazin-1-yl)ethyl)indolizine-7-carboxamide] |  | 0.1 to 1 |
| Cc1cc(C)c(CNC(=O)c2cc3c(Br)ccn3c(C(C)N3CCOCC3)c2C)c(=O)[nH]1 (stereo not shown) [Example 54, 1-bromo-N-((4,6-dimethyl-2-oxo-1,2-dihydropyridin-3-yl)methyl)-6-methyl-5-(1-morpholinylethyl)indolizine-7-carboxamide] | < 0.1 |  |
| CCN(c1c(C)c(C(=O)NCc2c(C)cc(C)[nH]c2=O)cc2cc(-c3cn(C)cn3)cn12)C1CCOCC1 [Example 73, N-((4,6-dimethyl-2-oxo-1,2-dihydropyridin-3-yl)methyl)-5-(ethyl(tetrahydro-2H-pyran-4-yl)amino)-6-methyl-2-(1-methyl-1H-imidazol-4-yl)indolizin-7-carboxamide] |  | < 0.1 |
| COc1cc(C)[nH]c(=O)c1CNC(=O)c1cc2c(-c3ccn[nH]3)ccn2c(C(C)OCc2nccs2)c1C (stereo not shown) [Compound 191, N-((4-methoxy-6-methyl-2-oxo-1,2-dihydropyridin-3-yl)methyl)-6-methyl-1-(1H-pyrazol-5-yl)-5-(1-(thiazol-2-ylmethoxy)ethyl)indolizine-7-carboxamide] |  | < 0.1 |
| Cc1cc(C)c(CNC(=O)c2cc3cncn3c(C(C)N3CCOCC3)c2C)c(=O)[nH]1 (stereo not shown) [Example 71, N-((4,6-dimethyl-2-oxo-1,2-dihydropyridin-3-yl)methyl)-6-methyl-5-(1-morphinolinylethyl)imidazo[1,5-a]pyridine-7-carboxamide] | < 0.1 |  |
| CCN1CCN(C(C)c2c(C)c(C(=O)NCc3c(C)cc(C)[nH]c3=O)cc3cc(Br)cn23)CC1 (stereo not shown) [Example 99, N-((4,6-dimethyl-2-oxo-1,2-dihydropyridin-3-yl)methyl)-6-methyl-5-(1-(4-ethylpiperazine)-1-ethyl)-2-bromoindolizine-7-carboxamide] | 0.1 to 1 |  |
| Cc1cc(C)c(CNC(=O)c2cc3cc(-c4ccnn4C)cn3c(C(C)N3CCC(N(C)C)CC3)c2C)c(=O)[nH]1 (stereo not shown) [Example 106, N-((4,6-dimethyl-2-oxo-1,2-dihydropyridin-3-yl)methyl)-5-(1-(4-(dimethylamino)piperidine-1-yl)ethyl)-6-methyl-2-(1-methyl-1H-pyrazol-5-yl)indolizine-7-carboxamide] |  | < 0.1 |
| Cc1cc(C)c(CNC(=O)c2cc3cc(-c4cnn(C)c4)cn3c(C(C)N3CCOCC3)c2C)c(=O)[nH]1 (stereo not shown) [Example 42, N-((4,6-dimethyl-2-oxo-1,2-dihydropyridin-3-yl)methyl)-6-methyl-2-(1-methyl-1H-pyrazol-4-yl)-5-(1-morpholinylethyl)indolizine-7-carboxamide] |  | < 0.1 |
| C=CCOC(C)c1c(C)c(C(=O)NCc2c(C)cc(C)[nH]c2=O)cc2cccn12 (stereo not shown) [Example 3] | 0.1 to 1 |  |
| Cc1cc(C)c(CNC(=O)c2cc3cc(-c4cnn(C5CCNCC5)c4)cn3c(C(C)N3CCOCC3)c2C)c(=O)[nH]1 (stereo not shown) [Example 44, N-((4,6-dimethyl-2-oxo-1,2-dihydropyridin-3-yl)methyl)-6-methyl-5-(1-morphinolinylethyl)-2-(1-(piperidin-4-yl)-1H-pyrazol-4-yl)indolizine-7-carboxamide] | < 0.1 |  |
| COc1cc(C)[nH]c(=O)c1CNC(=O)c1cc2c(-c3ccn[nH]3)ccn2c(N(C)C2CCN(CC(F)(F)F)CC2)c1C [Compound 202, N-((4-methoxy-6-methyl-2-oxo-1,2-dihydropyridin-3-yl)methyl)-6-methyl-5-(methyl(1-(2,2,2-trifluoroethyl)piperidin-4-yl)amino)-1-(1H-pyrazol-5-yl)indolizine-7-carboxamide] | < 0.1 |  |
| Cc1cc(C)c(CNC(=O)c2cc3cc(-c4ccn(C)n4)cn3c(C(C)N3CCC(N(C)C)CC3)c2C)c(=O)[nH]1 (stereo not shown) [Example 77, N-((4,6-dimethyl-2-oxo-1,2-dihydropyridin-3-yl)methyl)-5-(1-(4-(dimethylamino)piperidine-1-yl)ethyl)-6-methyl-2-(1-methyl-1H-pyrazol-3-yl)indolizin-7-carboxamide] | < 0.1 |  |
| COc1cc(C)[nH]c(=O)c1CNC(=O)c1cc2c(-c3ccnc(N(C)C)c3)ccn2c([C@H](C)N2CCN(CC(F)(F)F)CC2)c1C (single isomer, unassigned) [Compound 171, (S)-1-(2-(dimethylamino)pyridin-4-yl)-N-((4-methoxy-6-methyl-2-oxo-1,2-dihydropyridine-3-yl)methyl)-6-methyl-5-(1-(4-(2,2,2-trifluoroethyl)piperazin-1-yl)ethyl)indolizine-7-carboxamide or (R) 1-(2-(dimethylamino)pyridin-4-yl)-N-((4-methoxy-6-methyl-2-oxo-1,2-dihydropyridine-3-yl)methyl)-6-methyl-5-(1-(4-(2,2,2-trifluoroethyl)piperazin-1-yl)ethyl)indolizine-7-carboxamide] | < 0.1 |  |
| Cc1cc(C)c(CNC(=O)c2cc3cccn3c(C(C)OC3C=CCCC3)c2C)c(=O)[nH]1 (stereo not shown) [Example 7, 5-((cyclohex-2-en-1-yloxy)ethyl)-N-((4,6-dimethyl-2-oxo-1,2-dihydropyridin-3-yl)methyl)-6-methylindolizine-7-carboxamide] | 0.1 to 1 |  |
| COc1cc(C)[nH]c(=O)c1CNC(=O)c1cc2c(-c3ccc(C)nn3)ccn2c(C(C)N2CCN(CC(F)(F)F)CC2)c1C (stereo not shown) [Compound 199, N-((4-methoxy-6-methyl-2-oxo-1,2-dihydropyridin-3-yl)methyl)-6-methyl-1-(6-methylpyridazin-3-yl)-5-(1-(4-(2,2,2-trifluoroethyl)piperazin-1-yl)ethyl)indolizine-7-carboxamide] | < 0.1 |  |
| COc1cc(C)[nH]c(=O)c1CNC(=O)c1cc2cc(-c3cncn3C)cn2c(C(C)N2CCC(N(C)C)CC2)c1C (stereo not shown) [Example 135, 5-(1-(4-(dimethylamino)piperidin-1-yl)ethyl)-N-((4-methoxy-6-methyl-2-oxo-1,2-dihydropyridin-3-yl)methyl)-6-methyl-2-(1-methyl-1H-imidazol-5-yl)indolizine-7-carboxamide] | < 0.1 |  |
| COc1cccc(-c2cc3cc(C(=O)NCc4c(C)cc(C)[nH]c4=O)c(C)c(C(C)N4CCOCC4)n3c2)c1 (stereo not shown) [Example 95] | < 0.1 |  |
| COc1cc(C)[nH]c(=O)c1CNC(=O)c1cc2cc(-c3ccnn3C)cn2c(C(C)N2CCN(CC(F)(F)F)CC2)c1C (stereo not shown) [Example 83, N-((4-methoxy-6-methyl-2-oxo-1,2-dihydropyridin-3-yl)methyl)-6-methyl-2-(1-methyl-1H-pyrazol-5-yl)-5-(1-(4-(2,2,2-trifluoroethyl)piperazin-1-yl)ethyl)indolizine-7-carboxamide] | < 0.1 |  |
| Cc1cc(C)c(CNC(=O)c2cc3cc(-c4cncs4)cn3c(C(C)N3CCN(CC(F)(F)F)CC3)c2C)c(=O)[nH]1 (stereo not shown) [Example 141, N-((4,6-dimethyl-2-oxo-1,2-dihydropyridin-3-yl)methyl)-6-methyl-2-(thiazole-5-yl)-5-(1-(4-(2,2,2-trifluoroethyl)piperazin-1-yl)ethyl)indolizine-7-carboxamide] | 0.1 to 1 |  |
| Cc1cc(C)c(CNC(=O)c2cc3cc(-c4ccc(N5CCN(C)CC5)nc4)cn3c(C(C)N3CCOCC3)c2C)c(=O)[nH]1 (stereo not shown) [Example 91] | < 0.1 |  |
| Cc1cc(C)c(CNC(=O)c2cc3cc(-c4cc5c(s4)CCNC5)cn3c(C(C)N3CCOCC3)c2C)c(=O)[nH]1 (stereo not shown) [Example 114, N-((4,6-dimethyl-2-oxo-1,2-dihydropyridin-3-yl)methyl)-6-methyl-5-(1-morpholinoethyl)-2-(4,5,6,7-tetrahydro[2,3-c]pyridin-2-yl)indolizine-7-carboxamide] | 0.1 to 1 |  |
| COc1c(CNC(=O)c2cc3c(-c4ccc(N)nc4)ccn3c(C(C)N3CCN(CC(F)(F)F)CC3)c2C)c(=O)[nH]n1C (stereo not shown) [Compound 187, 1-(6-aminopyridin-3-yl)-N-((5-methoxy-1-methyl-3-oxo-2,3-dihydro-1H-pyrazole-4-yl)methyl)-6-methyl-5-(1-(4-(2,2,2-trifluoroethyl)piperazin-1-yl)ethyl)indolizine-7-carboxamide] | < 0.1 |  |
| COc1cc(-c2cc3cc(C(=O)NCc4c(C)cc(C)[nH]c4=O)c(C)c(C(C)OC)n3c2)cc(OC)c1OC (stereo not shown) [Compound 151] | < 0.1 |  |
| N-((4,6-dimethyl-2-oxo-1,2-dihydropyridin-3-yl)methyl)-6-methyl-5-(1-morpholinylethyl)-2-(1-ethyl-1H-pyrazole)indolizine-7-carboxamide [Example 113] | < 0.1 |  |
| 1-(2-chloropyridin-4-yl)-N-((4-methoxy-6-methyl-2-oxo-1,2-dihydropyridin-3-yl)methyl)-6-methyl-5-(1-(4-(2,2,2-trifluoroethyl)piperazin-1-yl)ethyl)indolizine-7-carboxamide [Compound 167] | < 0.1 |  |
| Cc1cc(C)c(CNC(=O)c2cc3cc(-c4cncs4)cn3c(C(C)N3CCN(CC(F)(F)F)CC3)c2C)c(=O)[nH]1 (stereo not shown) [Example 140] | 0.1 to 1 |  |
| COc1cc(C)[nH]c(=O)c1CNC(=O)c1cc2c(-c3cc(C)nc(C)c3)ccn2c([C@H](C)N2CCN(CC(F)(F)F)CC2)c1C (single isomer, unassigned) [Compound 174, (S)-1-(2,6-dimethylpyridin-4-yl)-N-((4-methoxy-6-methyl-2-oxo-1,2-dihydropyridine-3-yl)methyl)-6-methyl-5-(1-(4-(2,2,2-trifluoroethyl)piperazin-1-yl)ethyl)indolizine-7-carboxamide or (R) 1-(2,6-dimethylpyridin-4-yl)-N-((4-methoxy-6-methyl-2-oxo-1,2-dihydropyridine-3-yl)methyl)-6-methyl-5-(1-(4-(2,2,2-trifluoroethyl)piperazin-1-yl)ethyl)indolizine-7-carboxamide] | < 0.1 |  |

From patent US10968215B2 (SHANGHAI HAIHE PHARMACEUTICAL CO., LTD., priority 2016, dated 2021)
